Laboratory results reported in ChEMBL document CHEMBL1201861, “Genomics of Drug Sensitity in Cancer screening data, Wellcome Trust Sanger Institute”.
pIC50: −log10 of the molar value.

Experiments:
Assay in all cases: cells
[1] = tested on: ES8; assay type: functional, cell-based, Homo sapiens; details: Homo sapiens, ES8;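 further: growth inhibition of human ES8 cells, read out with a cell viability assay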
Description: SANGER: Inhibition of human ES8 cell growth in a cell viability assay.

[2] = tested on: KM12; assay type: functional, cell-based, Homo sapiens; details: Homo sapiens, KM12;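 further: KM12 cell growth inhibition, read out with a cell viability assay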
Description: SANGER: Inhibition of human KM12 cell growth in a cell viability assay.

[3] = tested on: PSN1; assay type: functional, cell-based, Homo sapiens; details: Homo sapiens, PSN1;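 further: suppression of growth of human PSN1 cells, read out by a cell viability assay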
Description: SANGER: Inhibition of human PSN1 cell growth in a cell viability assay.

[4] = tested on: EW-18; assay type: functional, cell-based; details: Homo sapiens;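 further: growth inhibition of EW-18 cells, read out by a cell viability assay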
Description: SANGER: Inhibition of human EW-18 cell growth in a cell viability assay.

[5] = tested on: KYSE-520 cell line; assay type: functional, cell-based, Homo sapiens; details: Homo sapiens, KYSE-520;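 further: growth inhibition of human KYSE-520 cells, read out with a viability assay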
Description: SANGER: Inhibition of human KYSE-520 cell growth in a cell viability assay.

[6] = tested on: HuCCT-1; assay type: functional, cell-based, Homo sapiens, HuCCT1; details: Homo sapiens, HuCCT-1;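 further: growth inhibition of HuCCT-1 cells, read out by a cell viability assay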
Description: SANGER: Inhibition of human HuCCT1 cell growth in a cell viability assay.

[7] = tested on: A673; assay type: functional, cell-based, Homo sapiens; details: Homo sapiens, A673;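 further: growth inhibition of human A673 cells, read out through a cell viability assay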
Description: SANGER: Inhibition of human A673 cell growth in a cell viability assay.

[8] = tested on: BT-20; assay type: functional, cell-based, Homo sapiens; details: Homo sapiens, BT-20;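 further: cell viability assay measuring suppression of growth in human BT-20 cells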
Description: SANGER: Inhibition of human BT-20 cell growth in a cell viability assay.

[9] = tested on: HO-1-N-1; assay type: functional, cell-based, Homo sapiens; details: Homo sapiens, HO-1-N-1;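 further: growth inhibition of human HO-1-N-1 cells, read out with a cell viability assay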
Description: SANGER: Inhibition of human HO-1-N-1 cell growth in a cell viability assay.

[10] = tested on: NCI-H2342; assay type: functional, cell-based; details: Homo sapiens;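 further: growth inhibition of the cancer cell line, determined with a cell viability assay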
Description: SANGER: Inhibition of human NCI-H2342 cell growth in a cell viability assay.

[11] = tested on: MIA PaCa-2; assay type: functional, cell-based, Homo sapiens; details: Homo sapiens, MIA PaCa-2;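 further: growth inhibition of MIA PaCa-2 cells, read out with a cell viability assay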
Description: SANGER: Inhibition of human MIA-PaCa-2 cell growth in a cell viability assay.

[12] = tested on: DK-MG; assay type: functional, cell-based, Homo sapiens; details: Homo sapiens, DK-MG;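 further: growth inhibition of DK-MG cells, read out with a cell viability assay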
Description: SANGER: Inhibition of human DK-MG cell growth in a cell viability assay.

[13] = tested on: SK-N-DZ; assay type: functional, cell-based, Homo sapiens; details: Homo sapiens, SK-N-DZ;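 further: growth inhibition of the cancer cell line, read out through a viability assay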
Description: SANGER: Inhibition of human SK-N-DZ cell growth in a cell viability assay.

[14] = tested on: UMC-11; assay type: functional, cell-based, Homo sapiens; details: Homo sapiens, UMC-11;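 further: growth inhibition of UMC-11 cells, read out with a cell viability assay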
Description: SANGER: Inhibition of human UMC-11 cell growth in a cell viability assay.

[15] = tested on: NCI-H727; assay type: functional, cell-based, Homo sapiens; details: Homo sapiens, NCI-H727;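 further: growth inhibition of human NCI-H727 cells, read out with a cell viability assay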
Description: SANGER: Inhibition of human NCI-H727 cell growth in a cell viability assay.

[16] = tested on: NY; assay type: functional, cell-based, Homo sapiens; details: Homo sapiens, NY
Description: SANGER: Inhibition of human NY cell growth in a cell viability assay.

[17] = tested on: BB49-HNC; assay type: functional, cell-based, Homo sapiens; details: Homo sapiens, BB49-HNC;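 further: cell viability assay read-out, reported as inhibition of BB49-HNC cell growth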
Description: SANGER: Inhibition of human BB49-HNC cell growth in a cell viability assay.

[18] = tested on: LNCaP-Clone-FGC; assay type: functional, cell-based, Homo sapiens; details: Homo sapiens, LNCaP-Clone-FGC
Description: SANGER: Inhibition of human LNCaP-Clone-FGC cell growth in a cell viability assay.

[19] = tested on: Daoy; assay type: functional, cell-based, Homo sapiens; details: Homo sapiens, Daoy;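 further: daoy cell growth inhibition, read out as cell viability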
Description: SANGER: Inhibition of human Daoy cell growth in a cell viability assay.

[20] = tested on: U-266; assay type: functional, cell-based; details: Homo sapiens
Description: SANGER: Inhibition of human U-266 cell growth in a cell viability assay.

[21] = tested on: OE19; assay type: functional, cell-based, Homo sapiens; details: Homo sapiens, OE19;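 further: growth inhibition of OE19 cells, measured through a cell viability read-out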
Description: SANGER: Inhibition of human OE19 cell growth in a cell viability assay.

[22] = tested on: SW1783; assay type: functional, cell-based; details: Homo sapiens;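 further: cell growth inhibition measured with a viability assay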
Description: SANGER: Inhibition of human SW1783 cell growth in a cell viability assay.

[23] = tested on: MKN-28; assay type: functional, cell-based, Homo sapiens; details: Homo sapiens, MKN-28;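 further: cell viability assay read-out, IC50 reflects suppression of growth of human MKN-28 cells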
Description: SANGER: Inhibition of human MKN28 cell growth in a cell viability assay.

[24] = tested on: NB7; assay type: functional, cell-based; details: Homo sapiens;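 further: growth inhibition of NB7 cells, read out with a cell viability assay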
Description: SANGER: Inhibition of human NB7 cell growth in a cell viability assay.

[25] = tested on: J-RT3-T3-5; assay type: functional, cell-based; details: Homo sapiens;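 further: cell viability assay measuring growth inhibition of human J-RT3-T3-5 cells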
Description: SANGER: Inhibition of human J-RT3-T3-5 cell growth in a cell viability assay.

[26] = tested on: YAPC; assay type: functional, cell-based, Homo sapiens; details: Homo sapiens, YAPC;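 further: growth inhibition of YAPC cells, measured with a cell viability assay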
Description: SANGER: Inhibition of human YAPC cell growth in a cell viability assay.

[27] = tested on: PANC-03-27; assay type: functional, cell-based, Homo sapiens; details: Homo sapiens, PANC-03-27
Description: SANGER: Inhibition of human PANC-03-27 cell growth in a cell viability assay.

[28] = tested on: 786-0; assay type: functional, cell-based, Homo sapiens; details: Homo sapiens
Description: SANGER: Inhibition of human 786-0 cell growth in a cell viability assay.

[29] = tested on: NCI-H747; assay type: functional, cell-based; details: Homo sapiens;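 further: growth inhibition of human NCI-H747 cells, read out by a cell viability assay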
Description: SANGER: Inhibition of human NCI-H747 cell growth in a cell viability assay.

[30] = tested on: NEC8; assay type: functional, cell-based, Homo sapiens; details: Homo sapiens, NEC8;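 further: growth inhibition of human NEC8 cells, read out by a cell viability assay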
Description: SANGER: Inhibition of human NEC8 cell growth in a cell viability assay.

[31] = tested on: KP-4; assay type: functional, cell-based, Homo sapiens; details: Homo sapiens, KP-4; read-out: IC50;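 further: human KP-4 cells, with growth inhibition read out through a cell viability assay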
Description: SANGER: Inhibition of human KP-4 cell growth in a cell viability assay.

[32] = tested on: 697; assay type: functional, cell-based; details: Homo sapiens
Description: SANGER: Inhibition of human 697 cell growth in a cell viability assay.

[33] = tested on: LCLC-97TM1; assay type: functional, cell-based, Homo sapiens; details: Homo sapiens, LCLC-97TM1;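 further: cell viability assay measuring growth inhibition of human LCLC-97TM1 cells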
Description: SANGER: Inhibition of human LCLC-97TM1 cell growth in a cell viability assay.

[34] = tested on: SW780; assay type: functional, cell-based, Homo sapiens; details: Homo sapiens, SW780;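 further: growth inhibition of the cells, read out with a cell viability assay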
Description: SANGER: Inhibition of human SW780 cell growth in a cell viability assay.

[35] = tested on: SCC-25; assay type: functional, cell-based, Homo sapiens; details: Homo sapiens, SCC-25;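 further: growth inhibition of SCC-25 cells, measured with a cell viability assay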
Description: SANGER: Inhibition of human SCC-25 cell growth in a cell viability assay.

[36] = tested on: MV4-11; assay type: functional, cell-based, MV-4-11; details: Homo sapiens;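 further: cell viability readout measuring growth inhibition of human MV-4-11 cells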
Description: SANGER: Inhibition of human MV-4-11 cell growth in a cell viability assay.

[37] = tested on: MEG-01; assay type: functional, cell-based; details: Homo sapiens;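 further: growth inhibition of MEG-01 cells, read out by a cell viability assay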
Description: SANGER: Inhibition of human MEG-01 cell growth in a cell viability assay.

[38] = tested on: COLO-800; assay type: functional, cell-based, Homo sapiens; details: Homo sapiens, COLO-800;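 further: growth inhibition of COLO-800 cells, read out with a cell viability assay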
Description: SANGER: Inhibition of human COLO-800 cell growth in a cell viability assay.

[39] = tested on: T84; assay type: functional, cell-based, Homo sapiens; details: Homo sapiens, T84;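 further: growth inhibition measured with a cell viability readout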
Description: SANGER: Inhibition of human T84 cell growth in a cell viability assay.

[40] = tested on: D-247MG; assay type: functional, cell-based, Homo sapiens; details: Homo sapiens, D-247MG
Description: SANGER: Inhibition of human D-247MG cell growth in a cell viability assay.

[41] = tested on: BB30-HNC; assay type: functional, cell-based, Homo sapiens; details: Homo sapiens, BB30-HNC;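 further: growth inhibition of the cultured cell line, read out by a cell viability assay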
Description: SANGER: Inhibition of human BB30-HNC cell growth in a cell viability assay.

[42] = tested on: MCF7; assay type: functional, cell-based, Homo sapiens; details: Homo sapiens, MCF7;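 further: growth inhibition of human MCF7 cells, read out with a cell viability assay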
Description: SANGER: Inhibition of human MCF7 cell growth in a cell viability assay.

[43] = tested on: HSC-3; assay type: functional, cell-based, Homo sapiens; details: Homo sapiens, HSC-3
Description: SANGER: Inhibition of human HSC-3 cell growth in a cell viability assay.

[44] = tested on: TE-12; assay type: functional, cell-based; details: Homo sapiens;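 further: growth inhibition of TE-12 cells, read out by a cell viability assay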
Description: SANGER: Inhibition of human TE-12 cell growth in a cell viability assay.

[45] = tested on: SW982; assay type: functional, cell-based; details: Homo sapiens;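 further: growth inhibition of SW982 cells, read out with a cell viability assay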
Description: SANGER: Inhibition of human SW982 cell growth in a cell viability assay.

[46] = tested on: EFM-19; assay type: functional, cell-based, Homo sapiens; details: Homo sapiens, EFM-19;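 further: growth inhibition of human EFM-19 cells, measured in a cell viability assay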
Description: SANGER: Inhibition of human EFM-19 cell growth in a cell viability assay.

[47] = tested on: D283 Med; assay type: functional, cell-based, Homo sapiens; details: Homo sapiens, D283 Med
Description: SANGER: Inhibition of human D-283MED cell growth in a cell viability assay.

[48] = tested on: KS-1; assay type: functional, cell-based, Homo sapiens; details: Homo sapiens, KS-1;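 further: growth inhibition of KS-1 cells, read out with a cell viability assay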
Description: SANGER: Inhibition of human KS-1 cell growth in a cell viability assay.

[49] = tested on: DJM-1; assay type: functional, cell-based, Homo sapiens; details: Homo sapiens, DJM-1;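 further: growth inhibition of human DJM-1 cells, read out by a cell viability assay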
Description: SANGER: Inhibition of human DJM-1 cell growth in a cell viability assay.

[50] = tested on: EC-GI-10; assay type: functional, cell-based, Homo sapiens; details: Homo sapiens, EC-GI-10
Description: SANGER: Inhibition of human EC-GI-10 cell growth in a cell viability assay.

[51] = tested on: LB373-MEL-D; assay type: functional, cell-based, Homo sapiens; details: Homo sapiens, LB373-MEL-D;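 further: growth inhibition of the cell line, read out in a cell viability assay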
Description: SANGER: Inhibition of human LB373-MEL-D cell growth in a cell viability assay.

[52] = tested on: MKN-45; assay type: functional, cell-based, Homo sapiens; details: Homo sapiens, MKN-45;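 further: growth inhibition of human MKN-45 cells, measured with a cell viability assay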
Description: SANGER: Inhibition of human MKN45 cell growth in a cell viability assay.

Q: What does the source list for COc1cc(F)c(F)c(Nc2ccc(I)cc2F)c1NS(=O)(=O)C1(CC(O)CO)CC1 (stereo not drawn)?
A: pIC50 [1]: < 5.30; pIC50 [2]: < 5.30; pIC50 [3]: 6.70; pIC50 [4]: 5.56; pIC50 [5]: 5.53; pIC50 [6]: 6.04; pIC50 [7]: < 5.30; pIC50 [8]: < 5.30; pIC50 [9]: 6.23; pIC50 [10]: < 5.30; pIC50 [11]: 5.55; pIC50 [12]: 5.55; pIC50 [13]: < 5.30; pIC50 [14]: < 5.30; pIC50 [15]: < 5.30; pIC50 [16]: < 5.30; pIC50 [17]: < 5.30; pIC50 [18]: < 5.30; pIC50 [19]: < 5.30; pIC50 [20]: < 5.30; pIC50 [21]: < 5.30; pIC50 [22]: < 5.30; pIC50 [23]: < 5.30; pIC50 [24]: 5.33; pIC50 [25]: < 5.30; pIC50 [26]: < 5.30; pIC50 [27]: 6.11; pIC50 [28]: 5.63; pIC50 [29]: 6.18; pIC50 [30]: < 5.30; pIC50 [31]: < 5.30; pIC50 [32]: < 5.30; pIC50 [33]: 6.55; pIC50 [34]: 6.12; pIC50 [35]: 6.31; pIC50 [36]: 6.09; pIC50 [37]: 6.10; pIC50 [38]: < 5.30; pIC50 [39]: < 5.30; pIC50 [40]: < 5.30; pIC50 [41]: 5.80; pIC50 [42]: < 5.30; pIC50 [43]: 6.51; pIC50 [44]: < 5.30; pIC50 [45]: 6.36; pIC50 [46]: < 5.30; pIC50 [47]: < 5.30; pIC50 [48]: 5.90; pIC50 [49]: < 5.30

Q: Cn1cncc1[C@@](N)(c1ccc(Cl)cc1)c1ccc2c(c1)c(-c1cccc(Cl)c1)cc(=O)n2C [TIPIFARNIB] was tested. Which pIC50 [1] did it give?
A: 4.98

Q: What about the pIC50 [2] of the same compound?
A: 6.93

Q: What about the pIC50 [3] of the same compound?
A: 5.95

Q: What about the pIC50 [4] of the same compound?
A: 6.34

Q: What about the pIC50 [5] of the same compound?
A: < 4.80

Q: What about the pIC50 [6] of the same compound?
A: 5.37

Q: And the pIC50 [7]?
A: 4.81

Q: And the pIC50 [8]?
A: < 4.80

Q: And the pIC50 [9]?
A: 4.98

Q: And the pIC50 [10]?
A: 6.42

Q: What about the pIC50 [11] of the same compound?
A: 6.49

Q: And the pIC50 [12]?
A: < 4.80

Q: What about the pIC50 [13] of the same compound?
A: 5.33

Q: What about the pIC50 [14] of the same compound?
A: < 4.80

Q: And the pIC50 [15]?
A: 6.06

Q: What about the pIC50 [16] of the same compound?
A: 5.72

Q: What about the pIC50 [17] of the same compound?
A: 5.23

Q: And the pIC50 [18]?
A: 4.94

Q: What about the pIC50 [19] of the same compound?
A: 7.24

Q: And the pIC50 [20]?
A: < 4.80

Q: And the pIC50 [21]?
A: 5.24

Q: And the pIC50 [22]?
A: 5.90

Q: And the pIC50 [23]?
A: 5.84

Q: And the pIC50 [25]?
A: 5.88

Q: What about the pIC50 [26] of the same compound?
A: < 4.80

Q: And the pIC50 [27]?
A: 5.24

Q: And the pIC50 [28]?
A: 6.47

Q: And the pIC50 [29]?
A: 5.58

Q: What about the pIC50 [30] of the same compound?
A: < 4.80

Q: And the pIC50 [31]?
A: 4.87

Q: What about the pIC50 [32] of the same compound?
A: 5.89

Q: What about the pIC50 [50] of the same compound?
A: < 4.80

Q: And the pIC50 [33]?
A: 5.64

Q: What about the pIC50 [34] of the same compound?
A: < 4.80

Q: And the pIC50 [35]?
A: 5.23

Q: And the pIC50 [36]?
A: 6.14

Q: What about the pIC50 [37] of the same compound?
A: 5.44

Q: What about the pIC50 [51] of the same compound?
A: 5.05

Q: And the pIC50 [38]?
A: < 4.80

Q: What about the pIC50 [39] of the same compound?
A: 6.26

Q: And the pIC50 [41]?
A: 6.23

Q: And the pIC50 [42]?
A: 6.78

Q: What about the pIC50 [52] of the same compound?
A: 5.55

Q: And the pIC50 [43]?
A: 5.58

Q: And the pIC50 [44]?
A: 5.55

Q: And the pIC50 [45]?
A: < 4.80

Q: And the pIC50 [46]?
A: 5.76

Q: And the pIC50 [47]?
A: < 4.80

Q: What about the pIC50 [48] of the same compound?
A: 6.11

Q: What about the pIC50 [49] of the same compound?
A: < 4.80

Q: With COc1ccc(-c2ccc3c(N4CCOC[C@@H]4C)nc(N4CCOC[C@@H]4C)nc3n2)cc1CO [AZD-8055] as the compound, how does the pIC50 [1] read?
A: 6.44

Q: What about the pIC50 [2] of the same compound?
A: 5.75

Q: And the pIC50 [3]?
A: 6.11

Q: What about the pIC50 [4] of the same compound?
A: 6.85

Q: And the pIC50 [5]?
A: < 5.70

Q: And the pIC50 [6]?
A: < 5.70

Q: And the pIC50 [7]?
A: < 5.70

Q: What about the pIC50 [8] of the same compound?
A: 5.91

Q: And the pIC50 [9]?
A: 6.17

Q: What about the pIC50 [10] of the same compound?
A: < 5.70

Q: And the pIC50 [11]?
A: 6.03

Q: And the pIC50 [12]?
A: < 5.70

Q: And the pIC50 [13]?
A: < 5.70

Q: What about the pIC50 [14] of the same compound?
A: < 5.70

Q: What about the pIC50 [15] of the same compound?
A: < 5.70

Q: And the pIC50 [16]?
A: < 5.70

Q: And the pIC50 [17]?
A: 5.76

Q: What about the pIC50 [18] of the same compound?
A: 6.45

Q: And the pIC50 [19]?
A: 5.96

Q: And the pIC50 [20]?
A: < 5.70

Q: And the pIC50 [21]?
A: < 5.70

Q: And the pIC50 [22]?
A: < 5.70

Q: And the pIC50 [23]?
A: < 5.70

Q: And the pIC50 [24]?
A: < 5.70

Q: What about the pIC50 [25] of the same compound?
A: 6.27

Q: And the pIC50 [26]?
A: < 5.70

Q: And the pIC50 [27]?
A: 5.99

Q: What about the pIC50 [28] of the same compound?
A: 5.96

Q: And the pIC50 [29]?
A: 6.12

Q: And the pIC50 [30]?
A: 6.38

Q: What about the pIC50 [31] of the same compound?
A: < 5.70

Q: And the pIC50 [32]?
A: 6.56

Q: What about the pIC50 [33] of the same compound?
A: 5.85

Q: And the pIC50 [34]?
A: 6.24

Q: And the pIC50 [35]?
A: 5.80

Q: What about the pIC50 [36] of the same compound?
A: 6.99

Q: And the pIC50 [37]?
A: < 5.70

Q: And the pIC50 [38]?
A: 6.16

Q: And the pIC50 [39]?
A: < 5.70

Q: And the pIC50 [40]?
A: < 5.70

Q: What about the pIC50 [41] of the same compound?
A: 5.73

Q: And the pIC50 [42]?
A: 6.39

Q: And the pIC50 [43]?
A: 6.37

Q: And the pIC50 [44]?
A: 5.85

Q: What about the pIC50 [45] of the same compound?
A: 6.16

Q: What about the pIC50 [46] of the same compound?
A: 6.15

Q: And the pIC50 [47]?
A: 6.83

Q: And the pIC50 [48]?
A: 5.90

Q: What about the pIC50 [49] of the same compound?
A: 5.79
